Data as given in publication PMC7729195, “Pharmacodynamic Functions of Synthetic Derivatives for Treatment of Methicillin-Resistant Staphylococcus aureus (MRSA) and Mycobacterium tuberculosis” (Frontiers in Microbiology, 2020).
Converted amounts (≈) assume the structure as drawn.

How the values were obtained:
HepG2 = type: cell-based; conditions: human, 7 days
Description: (§1) Human alveolar epithelial cells (A549), ([Giard et al., 1973]), Madin-Darby canine kidney epithelial cells (MDCK), ([Gaush et al., 1966]), human leukemia cells (THP-1) ([Tsuchiya et al., 1980]), human hepatocellular carcinoma cells (Hep-G2), ([Aden et al., 1979]), and human embryonic kidney cells 293 (HEK293) ([Graham et al., 1977]) were grown and differentiated in complete RPMI (Roswell Park Memorial Institute Medium) and DMEM (Dulbecco’s Modified Eagle’s medium) tissue culture media (RPMIc and DMEMc). To determine toxicity of the AIMS extract library, 2 × 10^5 of each cell type were added to a 96-well plate and left for 48 h at 37°C to adhere. Extract samples at a final concentration of 0.5 mg mL^–1 were added to the wells, then incubated for 7 days in a humidified 5% CO2 incubator at 37°C. Then resazurin (10 μL of 0.05% w/v) was added, and after 4 h, fluorescence measured as described previously. Cell viability was calculated as percentage fluorescence relative to untreated cells.

HEK 293 = type: cell-based; conditions: human, 7 days
Description: as §1

THP1 = type: cell-based; conditions: human, 7 days
Description: as §1

A549 = type: cell-based; conditions: human, 7 days
Description: as §1

P. aeruginosa PAO1 = assay: Bacterial inhibition assay (resazurin), MIC against P. aeruginosa; type: cell-based, Pseudomonas aeruginosa; conditions: Pseudomonas aeruginosa, PAO1; synthetic compounds, 18 h incubation
MRSA [1] = assay: Checkerboard assay with vancomycin against MRSA; type: cell-based, Staphylococcus aureus; conditions: MRSA
M. tuberculosis H37Rv [2] = assay: Checkerboard assay with rifampicin against M. tuberculosis; type: cell-based, Mycobacterium tuberculosis
M. tuberculosis = assay: Time-kill study against M. tuberculosis; type: cell-based, Mycobacterium tuberculosis; conditions: rifampicin plus compound, day 7 of treatment
Description: Time-kill experiments were performed by culturing MRSA and M. tuberculosis in liquid medium in the presence of six synthesized sample concentrations in doubling dilutions ranging from 8 to 0.001 × MIC and 2 × MIC for both bacteria, respectively. Growth curves were initially generated to confirm that bacteria would reach a stable early- to mid-log phase after 2 and 48 h of pre-incubation in antimicrobial-free both medium, respectively. Samples were taken in different incubation times after drug exposure at 0, 2, 4, 6, 8, and 24 h for MRSA and 24, 48 h, and 4 and 6 days for M. tuberculosis and then plated onto agar plates for CFU determination. The experiments were carried out in duplicate and repeated three times.

MRSA [3] = assay: Minimum bactericidal concentration (MBC) for MRSA; type: cell-based, Staphylococcus aureus; set-up: unit not given here; conditions: sub-culture on agar, 18 h
E. coli EC958 = assay: Bacterial inhibition assay (resazurin), MIC against E. coli; type: cell-based, Escherichia coli; conditions: synthetic compounds, 18 h incubation
TB. H37Rv = assay: Minimum bactericidal concentration (MBC) for TB; type: cell-based, Mycobacterium tuberculosis; set-up: unit not given here; conditions: sub-culture on agar, 7 days
resistant strains = assay: MIC against resistant strains; type: cell-based; conditions: read-out: MIC against resistant strains
M. tuberculosis H37Rv [4] = assay: Bacterial inhibition assay (resazurin), MIC against M. tuberculosis; type: cell-based, Mycobacterium tuberculosis; set-up: MIC for TB. H37Rv: unit not given here
[5] = tested on: A549, THP-1, HepG2 and HEK 293 cell lines; type: cell-based, human
Description: as §1

MRSA [6] = assay: Time-kill study against MRSA; type: cell-based, Staphylococcus aureus
MRSA [7] = assay: Bacterial inhibition assay (resazurin), MIC against MRSA; type: cell-based, Staphylococcus aureus; set-up: MIC for MRSA: unit not given here
[8] = M. tuberculosis, compound with rifampicin

With `CCCCCCCCN(CCCCCCCC)CCc1cn(-c2ccc3c4c(cccc24)C(=O)N(CC)C3=O)nn1` [Compound 18, 6-(4-(2-(Dioctylamino) Ethyl)-1H-1,2,3-Triazol-1-yl)-2-Ethyl-1H-Benzo[de]isoquinoline-1,3(2H)-Dione] the “Minimum toxicity concentration of drug (MTC) HepG2” value (HepG2) was >100 ± 5.0 µM, the “Minimum toxicity concentration of drug (MTC) HEK 293” value (HEK 293) was 3.1 ± 8.2 µM and the “Minimum toxicity concentration of drug (MTC) THP1” value (THP1) was >100 ± 9.0 µM. For the same compound, the “Minimum toxicity concentration of drug (MTC) A549” value (A549) was >100 ± 6.0 µM, the MIC (P. aeruginosa PAO1) was 12.5 ± 0.8 µM (≈ 7 µg/mL) and the “Drug–drug interactions” value (MRSA [1]; compound with vancomycin) was “Indifference (0.25–4 indifferent or additive activity)”. For the same compound, the FIC (MRSA [1]; compound with vancomycin) was 1.2, the MIC50 (MRSA [1]; Staphylococcus aureus, compound alone) was 12.5 µM and the “Drug–drug interactions” value (M. tuberculosis H37Rv [2]; [8]) was “Indifference (0.25–4 indifferent or additive activity)”. For the same compound, the FIC (M. tuberculosis H37Rv [2]; [8]) was 1, the MIC50 (M. tuberculosis H37Rv [2]; Mycobacterium tuberculosis, H37RV, read-out: Compound alone MIC50 for M. tuberculosis) was 6.25 µM and the “Effect against M. tuberculosis in combination with rifampicin” value (M. tuberculosis H37Rv [2]; rifampicin plus compound) was “synergistic or bactericidal effects”. The “Killing effect with rifampicin” value (M. tuberculosis) was “comparable killing effects”, the “MBC for MRSA” value (MRSA [3]) was 12.5 and the MIC (E. coli EC958; Escherichia coli, EC958) was 1.5 µM (≈ 0.84 µg/mL). For the same compound, the “MIC E. coli” value (E. coli EC958) was 1.5 ± 4.0 µM (≈ 0.84 µg/mL), the “MBC for TB. H37Rv” value (TB. H37Rv) was 50 and the MIC (resistant strains) was 2.2 µM (≈ 1.23 µg/mL). For the same compound, the MIC (M. tuberculosis H37Rv [4]; Mycobacterium tuberculosis, H37RV, 168 h, synthetic compounds, 7 days incubation) was 12.5 ± 1 µM (≈ 7 µg/mL), the “MIC for TB. H37Rv” value (M. tuberculosis H37Rv [4]; Table 6 summary) was 6.25 and the “Toxicity against THP1 and/or HEK 293 cells” value [5] was “some toxicity”. The “Effect of sub-inhibitory combination with vancomycin on MRSA growth” value (MRSA [6]; sub-inhibitory combinations with vancomycin) was “substantially inhibited growth of MRSA”, the “Concentration at which killing was observed” value (MRSA [6]; time-kill, MRSA) was 12.5 μg mL^–1 and the MIC (MRSA [7]; Staphylococcus aureus, MRSA, synthetic compounds, 18 h incubation) was 12.5 ± 2 µM (≈ 7 µg/mL). The “MIC for MRSA” value (MRSA [7]; Table 6 summary) was 12.5.
